The Ki is a measure of affinity in units of concentration, obtained from inhibition or displacement.

Results on two compounds are retold here after PMC12486850, “Dual mechanism of the OXA-23 carbapenemase inhibition by the carbapenem NA-1-157” (Antimicrobial Agents and Chemotherapy, 2025).

Experiment [1] deals with T1, OXA-23 (Acinetobacter baumannii, UniProt Q9L4P2).
T1 construct: 5'-truncated (54 bp) E. coli-optimized blaOXA-23 gene
Briefly: time-resolved crystal structures ([…] min soaks), ESI-LC/MS, nitrocefin competition kinetics. The class given is biochemical.

For experiment [2], the target named is T1, OXA-23. Briefly: crystal structure of the acyl-enzyme complex ([…] min soak, […] meropenem). Type of experiment: binding.

T1 sequence (Q9L4P2 19-273): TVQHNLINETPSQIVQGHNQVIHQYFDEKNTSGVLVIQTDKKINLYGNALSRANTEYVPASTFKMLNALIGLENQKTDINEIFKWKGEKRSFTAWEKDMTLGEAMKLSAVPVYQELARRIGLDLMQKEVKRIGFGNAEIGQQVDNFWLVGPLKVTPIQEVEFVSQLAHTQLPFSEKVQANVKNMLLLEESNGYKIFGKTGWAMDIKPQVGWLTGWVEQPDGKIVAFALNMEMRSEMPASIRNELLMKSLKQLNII

`C[C@@H](O)[C@H]1C(=O)N2C(C(=O)O)=C(S[C@@H]3CN[C@H](C(=O)N(C)C)C3)C[C@]12C` [NA-1-157] came in with a Ki at OXA-23 [1] of 590 ± 20 nM.

On to `C[C@@H](O)[C@H]1C(=O)N2C(C(=O)O)=C(S[C@@H]3CN[C@H](C(=O)N(C)C)C3)[C@H](C)[C@H]12` [meropenem], for which the “crystal structure of the acyl-enzyme complex (6 min soak, 20 mM meropenem)” value on OXA-23 [2] is on record as “In the OXA-23–meropenem acyl-enzyme complex, meropenem is covalently attached to the Ser70 side chain”.
